Experimental data: patent US20260285871A1, “Polymorphic Compounds and Uses Thereof” (TYRA BIOSCIENCES, INC., priority 2022, published 2026)

Experiment: Crystallization (polymorph) studies of compound A free base: fast/slow evaporation, slurry at 25° C., anti-solvent addition, vapor diffusion; solids analysed by XRPD
Assay type: physicochemical
Details: for FE: fast evaporative crystallization; for Results from Slow Evaporation Crystallization Experiments: slow evaporation at room temperature; for Slurry: slurry at 25° C., three days
Method: I. Fast Evaporative Crystallization Method (FE): compound A (ca. 30 mg) was dissolved in minimum quantity the stated solvent while heating at 80° C. The resulted solutions were filtered using a 0.45 μm PTFE syringe filter and the filtrate was collected. The filtrate was evaporated using a rotavap.
II. Slow Evaporative Crystallization Method (SE): compound A (ca. 30 mg) was dissolved in minimum quantity the stated solvent while heating at 80° C. The resulted solutions were filtered using a 0.45 μm PTFE syringe filter and the filtrate was collected. The filtrate was covered with perforated aluminum foil and left to evaporate at ambient temperature.
III. Slurry Crystallization at 25° C. using Form I of compound A: compound A (ca. 100 mg) was suspended in minimum quantity the stated solvent. The resulted slurries were allowed to stir at 25° C. for three days.
IV. Anti-Solvent Addition Crystallization: compound A (ca. 50 mg) was dissolved in solubilizing solvent. To that solution 200 μL anti-solvent was added slowly. These iterations were continued until the precipitation observed or maximum solvent quantity of ~25 mL. Many solvents were used as the solubilizing solvent in these experiments. Selection of anti-solvent for each solubilizing solvent is based on the miscibility between them.
V. Vapor Diffusion Crystallization: compound A (ca. 30 mg) was dissolved in solubilizing solvent and kept in a small (8 mL) vial. These vials were kept in a larger vial (40 mL) that had 15 mL anti-solvents and closed the vial cap to allow vapor diffusion between them. Many solvents were used as the solubilizing solvent in these experiments. Selection of anti-solvent for each solubilizing solvent is based on the miscibility between them. All the experiments were kept in undisturbed laboratory bench and observed periodically to see if any crystals were grown during that time.
Compound A was slurred in respective solvents and stirred at 25° C. for three days. A total of five unique XRPD patterns were identified and designated as Form I, Form II, Form III, Form IV, and Form V.
Compound A was dissolved in a suitable solvent while heating up to 80° C. and the resultant solutions were allowed to slowly evaporate at room temperature (25° C.).
Compound A was dissolved in suitable solvents. To those solutions anti-solvents were added to obtain the solids. The solvent and anti-solvent selection was based on the solubility of compound A and also miscibility between them.

[1] = solvent 14DOX, anti-solvent DEE
[2] = solvent 14DOX, anti-solvent T-Butyl Methyl Ether
[3] = solvent CHCl3, anti-solvent 4-Me-2Pentanone
[4] = solvent CHCl3, anti-solvent DEE
[5] = solvent CHCl3, anti-solvent T-Butyl Methyl Ether
[6] = solvent DCM, anti-solvent 4-Me-2Pentanone
[7] = solvent DCM, anti-solvent T-Butyl Methyl Ether
[8] = solvent DMSO, anti-solvent Water
[9] = solvent EtOAc, anti-solvent 4-Me-2Pentanone
[10] = solvent EtOAc, anti-solvent DEE
[11] = solvent EtOAc, anti-solvent T-Butyl Methyl Ether
[12] = solvent EtOH, anti-solvent 4-Me-2Pentanone
[13] = solvent EtOH, anti-solvent T-Butyl Methyl Ether
[14] = solvent EtOH, anti-solvent Water
[15] = solvent IPA, anti-solvent 4-Me-2Pentanone
[16] = solvent IPA, anti-solvent T-Butyl Methyl Ether
[17] = solvent MeOH, anti-solvent 4-Me-2Pentanone
[18] = solvent MeOH, anti-solvent T-Butyl Methyl Ether
[19] = solvent MeOH, anti-solvent Water
[20] = solvent THF, anti-solvent 4-Me-2Pentanone
[21] = solvent THF, anti-solvent T-Butyl Methyl Ether
[22] = solvent THF, anti-solvent Water

## C[C@@H](Oc1ccc2[nH]nc(-c3ccc(N4CC5(C4)CN(S(C)(=O)=O)C5)nc3)c2c1)c1c(Cl)cncc1Cl [Compound A, 5-[(1R)-1-(3,5-dichloro-4-pyridyl)ethoxy]-3-[6-(2-methylsulfonyl-2,6-diazaspiro[3.3]heptan-6-yl)-3-pyridyl]-1H-indazole]
Solvent 4-Me 2-Pentanone
  FE: Not Dissolved
  Results from Slow Evaporation Crystallization Experiments: Form I
  Slurry: Form I
Solvent ACN
  FE: Form II
  Results from Slow Evaporation Crystallization Experiments: Form IV
  Slurry: Form III
Solvent Acetone
  FE: Form II
  Results from Slow Evaporation Crystallization Experiments: Form IV and 5
  Slurry: Form II
Solvent CHCl3
  FE: Clear film
  Slurry: Form III
Solvent DEE
  FE: Not Dissolved
  Results from Slow Evaporation Crystallization Experiments: Form I
  Slurry: Form I
Solvent EtOAc
  FE: Form VIII
  Results from Slow Evaporation Crystallization Experiments: Form IV
  Slurry: Form I
Solvent EtOH
  FE: Form IV
  Results from Slow Evaporation Crystallization Experiments: Form IV
  Slurry: Form I
Solvent H2O
  FE: Not Dissolved
  Results from Slow Evaporation Crystallization Experiments: Form I
  Slurry: Form I
Solvent IPA
  FE: Form IV
  Results from Slow Evaporation Crystallization Experiments: Form IV
  Slurry: Form I
Solvent MeOH
  FE: Form IV
  Results from Slow Evaporation Crystallization Experiments: Form II
  Slurry: Form II
Solvent THF
  FE: Clear film
  Results from Slow Evaporation Crystallization Experiments: Form IV
  Slurry: Form III
Solvent tert-butyl methyl ether
  FE: Not Dissolved
Solvent 1,2-Propdiol
  Results from Slow Evaporation Crystallization Experiments: Form IV
  Slurry: Form I
Solvent DCM
  Results from Slow Evaporation Crystallization Experiments: Form IV
  Slurry: Form II
Solvent DMF
  Results from Slow Evaporation Crystallization Experiments: Form IV
  Slurry: Form VII
Solvent DMSO
  Results from Slow Evaporation Crystallization Experiments: Form IV
Solvent Eth. Gly
  Results from Slow Evaporation Crystallization Experiments: Form IV
  Slurry: Form I
Solvent T-ButylMethEther
  Results from Slow Evaporation Crystallization Experiments: Form I
  Slurry: Form I
Solvent 14DOX
  Slurry: Form VI
Solvent 14DOX, anti-solvent 4-Me-2Pentanone
  Results of Anti-Solvent Addition Studies: No XRPD -
[1]
  Results of Anti-Solvent Addition Studies: Form II
  Results of Vapor Diffusion Studies: Form VIII
[2]
  Results of Anti-Solvent Addition Studies: Form I
  Results of Vapor Diffusion Studies: Form VIII
Solvent 14DOX, anti-solvent Water
  Results of Anti-Solvent Addition Studies: Form V
Solvent ACN, anti-solvent 4-Me-2Pentanone
  Results of Anti-Solvent Addition Studies: No XRPD -
Solvent ACN, anti-solvent DEE
  Results of Anti-Solvent Addition Studies: No XRPD -
Solvent ACN, anti-solvent T-Butyl Methyl Ether
  Results of Anti-Solvent Addition Studies: Form IV
Solvent ACN, anti-solvent Water
  Results of Anti-Solvent Addition Studies: Form V +
Solvent Acetone, anti-solvent 4-Me-2Pentanone
  Results of Anti-Solvent Addition Studies: No XRPD -
Solvent Acetone, anti-solvent DEE
  Results of Anti-Solvent Addition Studies: Form II
Solvent Acetone, anti-solvent T-Butyl Methyl Ether
  Results of Anti-Solvent Addition Studies: Form I
Solvent Acetone, anti-solvent Water
  Results of Anti-Solvent Addition Studies: Form V
[3]
  Results of Anti-Solvent Addition Studies: Form II
  Results of Vapor Diffusion Studies: Form I +
[4]
  Results of Anti-Solvent Addition Studies: Form I
  Results of Vapor Diffusion Studies: Form VIII
[5]
  Results of Anti-Solvent Addition Studies: Form I
  Results of Vapor Diffusion Studies: Form I
[6]
  Results of Anti-Solvent Addition Studies: Form IV
  Results of Vapor Diffusion Studies: Form I +
Solvent DCM, anti-solvent DEE
  Results of Anti-Solvent Addition Studies: Form II
  Results of Vapor Diffusion Studies: Form IV
[7]
  Results of Anti-Solvent Addition Studies: Form I
  Results of Vapor Diffusion Studies: Form I +
Solvent DMF, anti-solvent 4-Me-2Pentanone
  Results of Anti-Solvent Addition Studies: No XRPD -
Solvent DMF, anti-solvent DEE
  Results of Anti-Solvent Addition Studies: Form VIII
Solvent DMF, anti-solvent T-Butyl Methyl Ether
  Results of Anti-Solvent Addition Studies: Form II
Solvent DMF, anti-solvent Water
  Results of Anti-Solvent Addition Studies: Form II
Solvent DMSO, anti-solvent T-Butyl Methyl Ether
  Results of Anti-Solvent Addition Studies: Form IV
[8]
  Results of Anti-Solvent Addition Studies: Amorphous
  Results of Vapor Diffusion Studies: Form IV +
[9]
  Results of Anti-Solvent Addition Studies: Form IV +
  Results of Vapor Diffusion Studies: Form IV
[10]
  Results of Anti-Solvent Addition Studies: Form IV
  Results of Vapor Diffusion Studies: Form IV
[11]
  Results of Anti-Solvent Addition Studies: Form I
  Results of Vapor Diffusion Studies: Form IV
[12]
  Results of Anti-Solvent Addition Studies: No XRPD -
  Results of Vapor Diffusion Studies: No XRPD -
Solvent EtOH, anti-solvent DEE
  Results of Anti-Solvent Addition Studies: Form IV
  Results of Vapor Diffusion Studies: Form IV
[13]
  Results of Anti-Solvent Addition Studies: Form IV
  Results of Vapor Diffusion Studies: Form IV
[14]
  Results of Anti-Solvent Addition Studies: Form IV +
  Results of Vapor Diffusion Studies: Form IV +
[15]
  Results of Anti-Solvent Addition Studies: No XRPD -
  Results of Vapor Diffusion Studies: Form IV
Solvent IPA, anti-solvent DEE
  Results of Anti-Solvent Addition Studies: Form IV
  Results of Vapor Diffusion Studies: Form IV
[16]
  Results of Anti-Solvent Addition Studies: Form IV
  Results of Vapor Diffusion Studies: Form IV +
Solvent IPA, anti-solvent Water
  Results of Anti-Solvent Addition Studies: Form IV +
[17]
  Results of Anti-Solvent Addition Studies: No XRPD -
  Results of Vapor Diffusion Studies: No XRPD -
Solvent MeOH, anti-solvent DEE
  Results of Anti-Solvent Addition Studies: Form II
[18]
  Results of Anti-Solvent Addition Studies: Form II
  Results of Vapor Diffusion Studies: Form II
[19]
  Results of Anti-Solvent Addition Studies: Form II
  Results of Vapor Diffusion Studies: Form II
[20]
  Results of Anti-Solvent Addition Studies: Form I
  Results of Vapor Diffusion Studies: Form II
Solvent THF, anti-solvent DEE
  Results of Anti-Solvent Addition Studies: Form II
  Results of Vapor Diffusion Studies: Form IV
[21]
  Results of Anti-Solvent Addition Studies: Form I
  Results of Vapor Diffusion Studies: Form VIII
[22]
  Results of Anti-Solvent Addition Studies: Form V
  Results of Vapor Diffusion Studies: Form V
